The experiment concerns the target T1, neutrophil elastase (Homo sapiens, UniProt P08246).
T1 sequence (P08246 30-247 limits assumed): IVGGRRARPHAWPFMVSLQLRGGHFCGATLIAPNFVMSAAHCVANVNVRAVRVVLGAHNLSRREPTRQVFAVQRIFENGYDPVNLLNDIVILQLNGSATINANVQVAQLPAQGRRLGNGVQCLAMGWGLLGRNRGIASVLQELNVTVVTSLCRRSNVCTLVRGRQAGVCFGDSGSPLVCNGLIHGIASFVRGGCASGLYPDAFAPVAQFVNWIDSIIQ
Description: Human Neutrophil Elastase Assay. The class given is biochemical. More on the design: purchased Calbiochem 324681. As to conditions: substrate MeOSuc-Ala-Ala-Pro-Val-AMC, pH 7.5, room temperature. A digest of the protocol: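 Readout: AMC fluorescence (ex 380, em 460 nm) after 60 min room-temperature reaction with 250 nM MeOSuc-AAPV-AMC, following 15 min compound–enzyme preincubation. Buffer: Tris/NaCl pH 7.5, 0.01% BSA.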

The structures appear in SMILES notation.

Usually IC50 stands for the concentration at which inhibition is half-maximal. For the compound `N#Cc1ccc(C2C3=C(CCCC3=O)N(c3cccc(C(F)(F)F)c3)C(=O)N2CC(=O)O)cc1` (centres unmarked) [Example 32, 2-(4-(4-Cyanophenyl)-2,5-dioxo-1-(3-(trifluoromethyl)phenyl)-1,2,5,6,7,8-hexahydroquinazolin-3(4H)-yl)acetic acid], the IC50 was determined as 12 nM. `CC(C)(CO)NC(=O)N1C(=O)N(c2cccc(C(F)(F)F)c2)C2=C(C(=O)CCC2)C1c1ccc(C#N)cc1` (centres unmarked) [Example 70.10]: the IC50 stood at 2.4 nM. Compared with the last compound, the IC50 is about 5-fold lower.

Compound `CN(CC1(C)COC1)C(=O)CN1C(=O)N(c2cccc(C(F)(F)F)c2)C2=C(C(=O)CCC2)C1c1ccc(C#N)cc1` (centres unmarked) [Example 36.41] yielded a half-inhibitory concentration (IC50) of 7.4 nM. Against the preceding compound, the IC50 is about 3.1-fold higher. `N#Cc1ccc(C2C3=C(CCCC3=O)N(c3cccc(C(F)(F)F)c3)C(=O)N2CC(=O)N2CC3CC3C2)cc1` (centres unmarked) [Example 36.6]: inhibition was half-maximal at 1.2 nM (IC50). As to `CS(=O)(=O)c1cc(C#N)ccc1[C@@H]1C2=C(CCCC2=O)N(c2cccc(C(F)(F)F)c2)C(=O)N1C(=O)NCC#N` [Example 75.1], the IC50 was below 1 nM. On to `CC(=O)N1CCN(C(=O)CN2C(=O)N(c3cccc(C(F)(F)F)c3)C3=C(C(=O)CCC3)C2c2ccc(C#N)cc2)CC1` (centres unmarked) [Example 36.60], for which the IC50 turned out to be 3.7 nM. On to `CCOC(=O)C(F)N1C(=O)N(c2cccc(C(F)(F)F)c2)C2=C(C(=O)CCC2)C1c1ccc(C#N)cc1` (centres unmarked) [Example 60, Ethyl 2-(4-(4-Cyanophenyl)-2,5-dioxo-1-(3-(trifluoromethyl)phenyl)-1,2,5,6,7,8-hexahydroquinazolin-3(4H)-yl)-2-fluoroacetate], for which half-maximal inhibition (IC50) required 21.6 nM. Compared with the last compound, the IC50 is about 5.8-fold higher. `Cn1ccc(S(=O)(=O)N2C(=O)N(c3cccc(C(F)(F)F)c3)C3=C(C(=O)CCC3)C2c2ccc(C#N)cc2)n1` (centres unmarked) [Example 44.7] had an IC50 of 15.9 nM. `N#Cc1ccc(C2C3=C(CCCC3=O)N(c3cccc(C(F)(F)F)c3)C(=O)N2CC(=O)N2CCC(O)C2)cc1` (centres unmarked) [Example 36.8] had a half-maximal inhibitory concentration (IC50) of 2.1 nM. Regarding `COCCN1C(=O)N(c2cccc(C(F)(F)F)c2)C2=C(C(=O)CCC2)C1c1ccc(C#N)cc1` (centres unmarked) [Example 22, 4-(1-(3-(Trifluoromethyl)phenyl)-3-(2-methoxyethyl)-2,5-dioxo-1,2,3,4,5,6,7,8-octahydroquinazolin-4-yl)benzonitrile], the IC50 turned out to be 8.7 nM. Take `CN(C)CCNC(=O)CN1C(=O)N(c2cccc(C(F)(F)F)c2)C2=C(C(=O)CCC2)C1c1ccc(C#N)cc1` (centres unmarked) [Example 36.10]: inhibition was half-maximal at 20 nM (IC50). This IC50 lies about 2.3-fold higher than the previous one. Regarding `CS(=O)(=O)CS(=O)(=O)N1C(=O)N(c2cccc(C(F)(F)F)c2)C2=C(C(=O)CCC2)C1c1ccc(C#N)cc1` (centres unmarked) [Example 44.9], the half-maximal inhibitory concentration (IC50) came to 3.4 nM. On to `CN(C)C(=O)CN1C(=O)N(c2cccc(C(F)(F)F)c2)C2=C(C(=O)CCC2)C1c1ccc(C#N)cc1S(C)(=O)=O` (centres unmarked) [Example 62, 2-(4-(4-Cyano-2-(methylsulfonyl)phenyl)-2,5-dioxo-1-(3-(trifluoromethyl)phenyl)-1,2,5,6,7,8-hexahydroquinazolin-3(4H)-yl)-N,N-dimethylacetamide], for which the 50% inhibitory concentration (IC50) worked out at 1.2 nM. The figure for `N#Cc1ccc(C2C3=C(CCCC3=O)N(c3cccc(C(F)(F)F)c3)C(=O)N2C(=O)NCC(F)F)cc1` (centres unmarked) [Example 70.6] is below 1 nM; for `CN(C)C(=O)N1C(=O)N(c2cccc(C(F)(F)F)c2)C2=C(C(=O)CCC2)C1c1ccc(C#N)cc1` (centres unmarked) [Example 38, 4-(4-Cyanophenyl)-N,N-dimethyl-2,5-dioxo-1-(3-(trifluoromethyl)phenyl)-1,2,5,6,7,8-hexahydroquinazoline-3(4H)-carboxamide] it is 67.1 nM; for `N#Cc1ccc(C2NC(=O)N(c3cccc(C(F)(F)F)c3)C3=C2C(=O)CC(c2cccs2)C3)cc1` (centres unmarked) [Example 9, 4-(2,5-Dioxo-7-(thiophen-2-yl)-1-(3-(trifluoromethyl)phenyl)-1,2,3,4,5,6,7,8-octahydroquinazolin-4-yl)benzonitrile] it is 41.7 nM. The compound `N#Cc1ccc(C2NC(=O)N(c3cccc(C(F)(F)F)c3)C3=C2C(=O)CC(c2ccc(C(F)(F)F)cc2)C3)cc1` (centres unmarked) [Example 7, 4-(2,5-Dioxo-1-(3-(trifluoromethyl)phenyl)-7-(4-(trifluoromethyl)phenyl)-1,2,3,4,5,6,7,8-octahydroquinazolin-4-yl)benzonitrile] showed an IC50 of 212 nM. Against the preceding compound, the IC50 is about 5.1-fold higher. The compound `CS(=O)(=O)C1CCN(C(=O)CN2C(=O)N(c3cccc(C(F)(F)F)c3)C3=C(C(=O)CCC3)C2c2ccc(C#N)cc2)C1` (centres unmarked) [Example 36.70] came in with an IC50 of 2.3 nM. This IC50 is about 92-fold lower than that of the compound before. For the compound `COCCNC(=O)CN1C(=O)N(c2cccc(C(F)(F)F)c2)C2=C(C(=O)CCC2)C1c1ccc(C#N)cc1` (centres unmarked) [Example 36.5], the half-inhibitory concentration (IC50) stood at 13.5 nM. `CN(Cc1ccccc1)C(=O)CN1C(=O)N(c2cccc(C(F)(F)F)c2)C2=C(C(=O)CCC2)C1c1ccc(C#N)cc1` (centres unmarked) [Example 36.47] displayed an IC50 of 13.8 nM.

`COCCNC(=O)N1C(=O)N(c2cccc(C(F)(F)F)c2)C2=C(C(=O)CCC2)[C@H]1c1ccc(C#N)cc1S(C)(=O)=O` [Example 75.6] gave a half-inhibitory concentration (IC50) below 1 nM. Take `N#Cc1ccc(C2C3=C(CCCC3=O)N(c3cccc(C(F)(F)F)c3)C(=O)N2C(=O)NCCCO)cc1` (centres unmarked) [Example 39.6]: the 50% inhibitory concentration (IC50) was below 1 nM. On to `N#Cc1ccc(C2C3=C(CCCC3=O)N(c3cccc(C(F)(F)F)c3)C(=O)N2C(N)=O)cc1` (centres unmarked) [Example 70, 4-(4-Cyanophenyl)-2,5-dioxo-1-(3-(trifluoromethyl)phenyl)-1,2,5,6,7,8-hexahydroquinazoline-3(4H)-carboxamide], for which the IC50 stood at 6 nM. Turning to `N#Cc1ccc(C2C3=C(CCCC3=O)N(c3cccc(C(F)(F)F)c3)C(=O)N2C(=O)NCC2(O)CCC2)cc1` (centres unmarked) [Example 70.13], the midpoint of inhibition, the IC50, lay at 2.1 nM. In the case of `N#Cc1ccc(C2C3=C(CCCC3=O)N(c3cccc(C(F)(F)F)c3)C(=O)N2CC(=O)N2CCC(F)C2)cc1` (centres unmarked) [Example 36.11], half-maximal inhibition (IC50) required 5.1 nM. Take `CC1(C)CCC2=C(C1=O)C(c1ccc(C#N)cc1)NC(=O)N2c1cccc(C(F)(F)F)c1` (centres unmarked) [Example 2, 4-(6,6-Dimethyl-2,5-dioxo-1-(3-(trifluoromethyl)phenyl)-1,2,3,4,5,6,7,8-octahydroquinazolin-4-yl)benzonitrile]: the half-maximal inhibitory concentration (IC50) was found to be 44.9 nM. For the compound `Cc1cc(C#N)ccc1C1NC(=O)N(c2cccc(C(F)(F)F)c2)C2=C1C(=O)CCC2` (centres unmarked) [Example 55, 4-(2,5-Dioxo-1-(3-(trifluoromethyl)phenyl)-1,2,3,4,5,6,7,8-octahydroquinazolin-4-yl)-3-methylbenzonitrile], it took 18.7 nM to reach half-maximal inhibition (IC50). On to `N#Cc1ccc(C2C3=C(CCCC3=O)N(c3cccc(C(F)(F)F)c3)C(=O)N2CC(=O)N2CCn3cccc3C2)cc1` (centres unmarked) [Example 36.48], for which 6.2 nM corresponded to half-maximal inhibition (IC50). In the case of `CC1(C)CC(=O)C2=C(C1)N(c1cccc(C(F)(F)F)c1)C(=O)NC2c1ccc(C#N)cc1` (centres unmarked) [Example 3, 4-(7,7-Dimethyl-2,5-dioxo-1-(3-(trifluoromethyl)phenyl)-1,2,3,4,5,6,7,8-octahydroquinazolin-4-yl)benzonitrile], the half-maximal inhibitory concentration (IC50) stood at 68.3 nM.

The compound `CN1CCCC1CNC(=O)CN1C(=O)N(c2cccc(C(F)(F)F)c2)C2=C(C(=O)CCC2)C1c1ccc(C#N)cc1` (centres unmarked) [Example 36.39] gave an IC50 of 26.3 nM. Against the preceding compound, the IC50 is about 2.6-fold lower. Take `N#Cc1ccc(C2C3=C(CCCC3=O)N(c3cccc(C(F)(F)F)c3)C(=O)N2C(=O)NC2CCOC2)cc1` (centres unmarked) [Example 70.8]: the IC50 was below 1 nM. `N#Cc1ccc(C2C3=C(CCCC3=O)N(c3cccc(C(F)(F)F)c3)C(=O)N2CC(=O)N2CCc3cnccc3C2)cc1` (centres unmarked) [Example 36.64]: the IC50 is 5.6 nM.

Compound `N#Cc1ccc(C2C3=C(CCCC3=O)N(c3cccc(C(F)(F)F)c3)C(=O)N2CC(=O)NCc2ccco2)cc1` (centres unmarked) [Example 36.15] showed a half-maximal inhibitory concentration (IC50) of 17.5 nM. `C[S+]([O-])CCNC(=O)CN1C(=O)N(c2cccc(C(F)(F)F)c2)C2=C(C(=O)CCC2)C1c1ccc(C#N)cc1` (centres unmarked) [Example 36.29] had a 50% inhibitory concentration (IC50) of 9.5 nM. Take `N#Cc1ccc(C2C3=C(CCCC3=O)N(c3cccc(C(F)(F)F)c3)C(=O)N2CC(=O)N2CCC3(CC2)CC3)cc1` (centres unmarked) [Example 36.34]: the half-maximal inhibitory concentration (IC50) is 10.7 nM. This IC50 and that of the compound before are within 1.5-fold of each other. As for `N#Cc1ccc(C2NC(=O)N(c3cc(C(F)(F)F)ccn3)C3=C2C(=O)CCC3)cc1` (centres unmarked) [Example 13, 4-(2,5-Dioxo-1-(4-(trifluoromethyl)pyridin-2-yl)-1,2,3,4,5,6,7,8-octahydroquinazolin-4-yl)benzonitrile], 110 nM corresponded to half-maximal inhibition (IC50). Consider `N#Cc1ccc(C2C3=C(CCCC3=O)N(c3cccc(C(F)(F)F)c3)C(=O)N2C(=O)NC2CCS(=N)(=O)CC2)cc1` (centres unmarked) [Example 72, 4-(4-Cyanophenyl)-2,5-dioxo-N-(1-imino-1-oxo-hexahydro-1λ^6-thiopyran-4-yl)-1-(3-(trifluoromethyl)phenyl)-1,2,5,6,7,8-hexahydroquinazoline-3(4H)-carboxamide], for which the IC50 was below 1 nM. As for `CNC(=O)N1C(=O)N(c2cccc(C(F)(F)F)c2)C2=C(C(=O)CCC2)C1c1ccc(C#N)cc1` (centres unmarked) [Example 39.1], half-maximal inhibition (IC50) was put at 1.2 nM.

In the case of `N#Cc1ccc(C2C3=C(CCCC3=O)N(c3cccc(C(F)(F)F)c3)C(=O)N2CC(=O)N2CCn3cncc3C2)cc1` (centres unmarked) [Example 36.49], the midpoint of inhibition, the IC50, lay at 2.6 nM. Compared with the last compound, the IC50 is about 2.2-fold higher. With `N#Cc1ccc(C2NC(=O)N(c3cccc(C(F)(F)F)c3)C3=C2C(=O)CCC3)c(F)c1` (centres unmarked) [Example 52, 4-(2,5-Dioxo-1-(3-(trifluoromethyl)phenyl)-1,2,3,4,5,6,7,8-octahydroquinazolin-4-yl)-3-fluorobenzonitrile], the IC50 was determined as 26.7 nM. With `Cn1ccc(CNC(=O)N2C(=O)N(c3cccc(C(F)(F)F)c3)C3=C(C(=O)CCC3)C2c2ccc(C#N)cc2)n1` (centres unmarked) [Example 39.13] the figure was 1 nM.

For the origin of these results see patent US9115093B2, “Substituted bicyclic dihydropyrimidinones and their use as inhibitors of neutrophil elastase activity” (Boehringer Ingelheim International GmbH, priority 2013, dated 2015).
